{
  "source": "paper PMC11999280",
  "about": "“Design and screening of novel endosomal escape compounds that enhance functional delivery of oligonucleotides in vitro” (Molecular Therapy. Nucleic Acids, 2025)",
  "format_in_all_cases": "cell-based",
  "key": {"[1]": {"system": "mCherry-GAL9 expressing U2OS cells", "assay": "GAL9 recruitment assay, U2OS", "details": "calculated mean from >3 independent exp.", "experimental": "(§1) Experiments assessing GAL9 localization as an indicator for endosomal remodeling were performed as previously described[15] using 8× stablemCherry-GAL9 expressing cell lines, SHSY5Y, U2OS, 16HBE, NCI-H358, HuH7, HepG2, HEK293, and HeLa. For mCherry-GAL9 recruitment, 3,000 or 6,500 cells/well (depending upon cell line) were seeded into 384-well CellCarrier Ultra plates 24 h prior to treatment (PerkinElmer, catalog no. 6007558). An Echo 655T acoustic dispenser (Labcyte) was used for EEE dose-response preparation by transferring to the cell plate. At assay endpoints, cells were PBS washed, 4% paraformaldehyde fixed at room temperature […] (VWR, catalog no. 9713.1000), and nuclei stained with PBS +1 μg/mL Hoechst 33342 (Thermo Fisher Scientific, catalog no. H21492).\n(§2) Imaging was performed using a spinning-disk confocal microscope (Yokogawa: CV8000) with a ×20w objective (numerical aperture 1.0). Cells and mCherry-GAL9 structure identification and quantification were done using Columbus image-analysis software (PerkinElmer version 2.9.0). Data processing was done using Spotfire (Tibco version 11.4) and Prism (GraphPad version 9.1.0). Image panels were assembled using the FigureJ plugin for FIJI.[43] All mCherry-GAL9 experiments were performed three times (N = 3) with duplicated wells per treatment (n = 2)."}, "[2]": {"system": "mCherry-GAL9 expressing HEK293 cells", "assay": "GAL9 recruitment assay, HEK293", "details": "calculated mean from >3 independent exp.", "experimental": "as §1, §2"}, "[3]": {"system": "HeLa_Luc705 cells (pLuc/705 splice-switching reporter)", "assay": "Functional 705-SSO delivery, luciferase splice-switching assay", "details": "HeLa-Luc705 + 2 µM SSO; EEE 2.5 - 3 µM; mean from >3 independent experiments", "from_the_text": "Therefore, next, we functionally screened the SSO delivery in the HeLa_Luc705 reporter cell line. HeLa_Luc705 carries a pLuc/705 splice-switching reporter luciferase gene interrupted by a mutated β-globin intron, which creates a preferentially used cryptic 5′ splice site leading to aberrant splicing. Functional SSO delivery masks the cryptic site, redirecting the splicing machinery to the right splicing site, allowing the measurement of luciferase expression (Figure S1).[25]^,[26]^,[27]^,[28] We used SSO transfection with LF2000 as transfection control and the previously published endosomal escape enhancer CMP05 (here, EEE2) as positive control.[15]\nFor the assessment of functional SSO therapeutics, a HeLa_Luc705 cell line was grown in DMEM media supplemented with 10% fetal bovine serum (FBS). For most treatments, 10,000 cells/well were seeded in a 96-well plate, 24 h pre-incubated with 1- to 2-μM oligonucleotide, and then treated at the described EEE concentration. At 24 h post-treatment, cells were PBS rinsed and collected for further analysis (treatments and incubation times changed accordingly to the experiment design). Luciferase readout was performed as previously described,[15] using a GloMax 96-well plate microplate luminometer (Promega) immediately after adding 30 μL auto-injected luciferin substrate (Promega Firefly Luciferase Assay System; Thermo Scientific, catalog no. 16174) in a white-walled 96-well plate containing 30 μL 0.1% Triton X-100 (Sigma-Aldrich) cell lysed. Photon exposure time and delay were set to 10 and 2 s after injection. LF2000 was used as the transfection reagent control (Thermo Scientific, catalog no. 11668019). For EEE experiments using 1 or 2 μM SSOs, the control was prepared using lipofection with 100–200 nM SSO; this is to avoid complex induced cell toxicity.\n705-SSO was purchased from and synthesized by Integrated DNA Technologies. The 705-SSO sequence was previously published, containing 2′-O-methylated bases and only phosphorothioate-saturated backbone linkages were included.[15] The 705-SSO was high-performance liquid chromatography purified, shipped, and stored in IDTE buffer (10 mM Tris, 0.1 mM EDTA)."}, "[4]": {"system": "mCherry-GAL9 expressing SHSY5Y cells", "assay": "GAL9 recruitment assay, SHSY5Y", "details": "calculated mean from >3 independent exp.", "experimental": "as §1, §2"}, "[5]": {"system": "mCherry-GAL9 expressing HepG2 cells", "assay": "GAL9 recruitment assay, HepG2", "details": "calculated mean from >3 independent exp.", "experimental": "as §1, §2"}, "[6]": {"system": "mCherry-GAL9 expressing HeLa cells", "assay": "GAL9 recruitment assay, HeLa", "details": "calculated mean from >3 independent exp.", "experimental": "as §1, §2"}, "[7]": {"system": "mCherry-GAL9 expressing 16HBE cells", "assay": "GAL9 recruitment assay, 16HBE", "details": "calculated mean from >3 independent exp.", "experimental": "as §1, §2"}, "[8]": {"system": "mCherry-GAL9 expressing NCI-H358 cells", "assay": "GAL9 recruitment assay, NCI-H358", "details": "calculated mean from >3 independent exp.", "experimental": "as §1, §2"}, "[9]": {"system": "mCherry-GAL9 expressing HuH7 cells", "assay": "GAL9 recruitment assay, HuH7", "details": "calculated mean from >3 independent exp.", "experimental": "as §1, §2"}},
  "data": [
    {"smiles": "COc1nn(C2CCN(C)CC2)cc1Nc1ncc(F)c(-n2ccc3ccc(C#N)cc32)n1", "note": "[EEE14]", "values": [
      {"measurement": "Gal9 response compared to reference", "setting": "[1]; EEE 0.31 µM", "value": 0.013},
      {"measurement": "Gal9 response compared to reference", "setting": "[1]; EEE 0.62 µM", "value": 0.013},
      {"measurement": "Gal9 response compared to reference", "setting": "[1]; EEE 1.25 µM", "value": 0.015},
      {"measurement": "Gal9 response compared to reference", "setting": "[1]; EEE 2.5 µM", "value": 0.023},
      {"measurement": "Gal9 response compared to reference", "setting": "[1]; EEE 5 µM", "value": 0.058},
      {"measurement": "Gal9 response compared to reference", "setting": "[1]; EEE 10 µM", "value": 0.232},
      {"measurement": "Gal9 response compared to reference", "setting": "[2]; EEE 0.31 µM", "value": 0.023},
      {"measurement": "Gal9 response compared to reference", "setting": "[2]; EEE 0.62 µM", "value": 0.019},
      {"measurement": "Gal9 response compared to reference", "setting": "[2]; EEE 1.25 µM", "value": 0.018},
      {"measurement": "Gal9 response compared to reference", "setting": "[2]; EEE 2.5 µM", "value": 0.035},
      {"measurement": "Gal9 response compared to reference", "setting": "[2]; EEE 5 µM", "value": 0.123},
      {"measurement": "Gal9 response compared to reference", "setting": "[2]; EEE 10 µM", "value": 0.443},
      {"measurement": "Luciferase expression compared to reference", "setting": "[3]", "value": 0.590},
      {"measurement": "Gal9 response compared to reference", "setting": "[4]; EEE 0.31 µM", "value": 0.013},
      {"measurement": "Gal9 response compared to reference", "setting": "[4]; EEE 0.62 µM", "value": 0.014},
      {"measurement": "Gal9 response compared to reference", "setting": "[4]; EEE 1.25 µM", "value": 0.017},
      {"measurement": "Gal9 response compared to reference", "setting": "[4]; EEE 2.5 µM", "value": 0.083},
      {"measurement": "Gal9 response compared to reference", "setting": "[4]; EEE 5 µM", "value": 0.403},
      {"measurement": "Gal9 response compared to reference", "setting": "[4]; EEE 10 µM", "value": 0.645},
      {"measurement": "Gal9 response compared to reference", "setting": "[5]; EEE 0.31 µM", "value": 0.008},
      {"measurement": "Gal9 response compared to reference", "setting": "[5]; EEE 0.62 µM", "value": 0.005},
      {"measurement": "Gal9 response compared to reference", "setting": "[5]; EEE 1.25 µM", "value": 0.005},
      {"measurement": "Gal9 response compared to reference", "setting": "[5]; EEE 2.5 µM", "value": 0.005},
      {"measurement": "Gal9 response compared to reference", "setting": "[5]; EEE 5 µM", "value": 0.015},
      {"measurement": "Gal9 response compared to reference", "setting": "[5]; EEE 10 µM", "value": 0.155},
      {"measurement": "Gal9 response compared to reference", "setting": "[6]; EEE 0.31 µM", "value": 0.005},
      {"measurement": "Gal9 response compared to reference", "setting": "[6]; EEE 0.62 µM", "value": 0.005},
      {"measurement": "Gal9 response compared to reference", "setting": "[6]; EEE 1.25 µM", "value": 0.004},
      {"measurement": "Gal9 response compared to reference", "setting": "[6]; EEE 2.5 µM", "value": 0.006},
      {"measurement": "Gal9 response compared to reference", "setting": "[6]; EEE 5 µM", "value": 0.035},
      {"measurement": "Gal9 response compared to reference", "setting": "[6]; EEE 10 µM", "value": 0.213},
      {"measurement": "Gal9 response compared to reference", "setting": "[7]; EEE 0.31 µM", "value": 0.010},
      {"measurement": "Gal9 response compared to reference", "setting": "[7]; EEE 0.62 µM", "value": 0.013},
      {"measurement": "Gal9 response compared to reference", "setting": "[7]; EEE 1.25 µM", "value": 0.014},
      {"measurement": "Gal9 response compared to reference", "setting": "[7]; EEE 2.5 µM", "value": 0.031},
      {"measurement": "Gal9 response compared to reference", "setting": "[7]; EEE 5 µM", "value": 0.118},
      {"measurement": "Gal9 response compared to reference", "setting": "[7]; EEE 10 µM", "value": 0.421},
      {"measurement": "Gal9 response compared to reference", "setting": "[8]; EEE 0.31 µM", "value": 0.015},
      {"measurement": "Gal9 response compared to reference", "setting": "[8]; EEE 0.62 µM", "value": 0.019},
      {"measurement": "Gal9 response compared to reference", "setting": "[8]; EEE 1.25 µM", "value": 0.019},
      {"measurement": "Gal9 response compared to reference", "setting": "[8]; EEE 2.5 µM", "value": 0.026},
      {"measurement": "Gal9 response compared to reference", "setting": "[8]; EEE 5 µM", "value": 0.073},
      {"measurement": "Gal9 response compared to reference", "setting": "[8]; EEE 10 µM", "value": 0.457},
      {"measurement": "Gal9 response compared to reference", "setting": "[9]; EEE 0.31 µM", "value": 0.009},
      {"measurement": "Gal9 response compared to reference", "setting": "[9]; EEE 0.62 µM", "value": 0.007},
      {"measurement": "Gal9 response compared to reference", "setting": "[9]; EEE 1.25 µM", "value": 0.010},
      {"measurement": "Gal9 response compared to reference", "setting": "[9]; EEE 2.5 µM", "value": 0.016},
      {"measurement": "Gal9 response compared to reference", "setting": "[9]; EEE 5 µM", "value": 0.047},
      {"measurement": "Gal9 response compared to reference", "setting": "[9]; EEE 10 µM", "value": 0.280}
    ]}
  ]
}
